Measurements: patent publication US20040023886A1, “Method for treating neurological conditions and inducing immunosuppression with cephaibols” (Aventis Pharma Deutschland Gmbh, priority 2002, published 2004)
“Also recorded” adds a separate entry of the source. Where a SMILES comes first, the peptide text is derived from it. [ ]: non-standard residue; d: D form. Hyp = O=C(O)[CH]1C[CH](O)CN1; Phe(ol) = N[CH](CO)Cc1ccccc1; Iva = CC[C](C)(N)C(=O)O; Aib = CC(C)(N)C(=O)O

Tests used:
laboratory mice [1] = assay: Hypothermia (neuroleptic effect, mouse model); assay type: in vivo; details: 10 mg/kg intraperitoneal
Excerpt: (§1) Neuroleptic effect of the cephaibols in the mouse model

laboratory mice [2] = assay: Influence on spontaneous motility (neuroleptic effect, mouse model); assay type: in vivo; details: 10 mg/kg intraperitoneal, observed from 5 min up to 24 hours
Protocol: as §1
The influence of cephaibols A, B, C, D and E on motoricity in laboratory mice was observed over various periods of time (from 5 min up to 24 hours).
Fright reactions (noises) were retained, thereby ruling out the possibility of the cephaibols having a narcotic effect in the experimental arrangement.

Phoma destructiva = assay: Induction of pigment formation in Phoma destructiva, punched-hole plate agar diffusion test; assay type: cell-based; details: 50 µL of test solution per hole, 20 to 25° C., 4 to 5 days
Excerpt: The induction of pigment formation in the fungus Phoma destructiva is a test model for, inter alia, identifying a potential immunosuppressant effect in test substances. The implementation of the Phoma destructiva test has been described by K. Dornberger et al. in J. Antibiotics, §, 977-989,1995.
The organism Phoma destructiva is a fungus which is known to be pathogenic to plants and which grows, in feebly colored colonies, on agar plates which have been inoculated with vegetative mycelium. Cell differentiation processes, which are accompanied by the formation of a pigment and therefore enable cell differentiation to be detected, are initiated under the influence of special inducers. The pigment, which is a melanin-like substance, can be recognized by its color and quantified photometrically or by measuring the zone size.
The fungus Phoma destructiva was cultured on sloping agar tubes containing culture medium A or B at from 20 to 25° C. and then stored at from 4 to 6° C. and reinoculated in a 2-year rhythm.
The fungus Phoma destructiva was cultured at from 20 to 25° C. for 11 days on medium B in 100 mm diameter petri dishes and, after that, washed off with 10 ml of a sterile 0.9% solution of NaCl. The wash-off can be used for 5 days when stored at 8° C.
The agar diffusion test method was a modification of the standardized agar diffusion assay described in the European Pharmacopoeia [Deutscher Apothekerverlag Stuttgart, pages 113-118, 1997]: 40 mL of test agar medium were liquefied and brought to a constant temperature of 50° C.; from 8 to 10 mL of the inoculation culture were added under sterile conditions and the mixture was then poured into 150 mm diameter test plates. After the plates had cooled, 12 punched holes of 9 mm in diameter were arranged on the plate using a punching implement [J, V. Benett et al. Appl. Micr.1.1;, 170-177, 1966]. The test holes were loaded with 50JiL of the solution to be tested, with one test hole containing cyclosporin as the control substance (1 μg of cyclosporin A in 50 μL of methanol). […]

platelet aggregation = details: literature; cited from earlier work

Molecule | body temperature as compared with the control animals (laboratory mice [1]) | motoricity (climbing) in comparison with the control mice (laboratory mice [2]) | pigment formation in Phoma destructiva (Phoma destructiva) | platelet aggregation (platelet aggregation)
CCC(C)(NC(=O)C(CC(C)C)NC(=O)CNC(=O)C(C)(C)NC(=O)C(C)(C)NC(=O)C(C)(C)NC(=O)C(C)(C)NC(=O)C(Cc1ccccc1)NC(C)=O)C(=O)NC(C)(C)C(=O)N1CC(O)CC1C(=O)NC(CCC(N)=O)C(=O)NC(C)(C)C(=O)N1CC(O)CC1C(=O)NC(C)(C)C(=O)N1CCCC1C(=O)NC(CO)Cc1ccccc1 (stereo not drawn) [cephaibol C, AcPhe-Aib-Aib-Aib-Aib-Gly-Leu-Iva-Aib-Hyp-Gln-Aib-Hyp-Aib-Pro-Phe-ol] (Ac-F[Aib][Aib][Aib][Aib]GL[Iva][Aib][Hyp]Q[Aib][Hyp][Aib]P[Phe(ol)]; configuration not given here) | marked reduction; also recorded: particularly pronounced | impaired; also recorded: particularly pronounced | particularly pronounced | –
CCC(C)(NC(=O)C(CC(C)C)NC(=O)CNC(=O)C(C)(C)NC(=O)C(C)(C)NC(=O)C(C)(C)NC(=O)C(C)(C)NC(=O)C(Cc1ccccc1)NC(C)=O)C(=O)NC(C)(C)C(=O)N1CC(O)CC1C(=O)NC(CCC(N)=O)C(=O)NC(C)(CC)C(=O)N1CC(O)CC1C(=O)NC(C)(C)C(=O)N1CCCC1C(=O)NC(CO)Cc1ccccc1 (stereo not drawn) [cephaibol A, AcPhe-Aib-Aib-Aib-Aib-Gly-Leu-Iva-Aib-Hyp-Gln-Iva-Hyp-Aib-Pro-Phe-ol] (Ac-F[Aib][Aib][Aib][Aib]GL[Iva][Aib][Hyp]Q[Iva][Hyp][Aib]P[Phe(ol)]; configuration not given here) | marked reduction | impaired | particularly pronounced | –
Clonostachin | – | – | – | inhibits
CCC(C)(NC(=O)C(CC(C)C)NC(=O)CNC(=O)C(C)(C)NC(=O)C(C)(C)NC(=O)C(C)(C)NC(=O)C(C)(C)NC(=O)C(Cc1ccccc1)NC(C)=O)C(=O)NC(C)(C)C(=O)N1CC(O)CC1C(=O)NC(CCC(N)=O)C(=O)NC(C)(C)C(=O)N1CC(O)CC1C(=O)NC(C)(C)C(=O)N1CCCC1C(=O)NC(CO)Cc1ccccc1 (stereo not drawn) [cephaibol D, AcPhe-Aib-Aib-Aib-Aib-Gly-Leu-Aib-Aib-Hyp-Gln-Aib-Hyp-Aib-Pro-Xaa5] (Ac-F[Aib][Aib][Aib][Aib]GL[Iva][Aib][Hyp]Q[Aib][Hyp][Aib]P[Phe(ol)]; configuration not given here) | – | impaired | – | –
CCC(C)(NC(=O)C(CC(C)C)NC(=O)CNC(=O)C(C)(CC)NC(=O)C(C)(C)NC(=O)C(C)(C)NC(=O)C(C)(C)NC(=O)C(Cc1ccccc1)NC(C)=O)C(=O)NC(C)(C)C(=O)N1CC(O)CC1C(=O)NC(CCC(N)=O)C(=O)NC(C)(CC)C(=O)N1CC(O)CC1C(=O)NC(C)(C)C(=O)N1CCCC1C(=O)NC(CO)Cc1ccccc1 (stereo not drawn) [cephaibol B, AcPhe-Aib-Aib-Aib-Iva-Gly-Leu-Iva-Aib-Hyp-Gln-Iva-Hyp-Aib-Pro-Phe-ol] (Ac-F[Aib][Aib][Aib][Iva]GL[Iva][Aib][Hyp]Q[Iva][Hyp][Aib]P[Phe(ol)]; configuration not given here) | marked reduction; also recorded: particularly pronounced | impaired; also recorded: particularly pronounced | particularly pronounced | –
